# Assay results: patent US9921224B2, “Use of CD36 to identify cancer subjects for treatment” (Children's Medical Center Corporation, priority 2013, dated 2018)
# Where no end group is shown, it is not given here. [ ]: non-standard residue; d: D form.
# Assays:
# LLC cells = test: In vitro cell proliferation (MTT) assay, LLC cells; assay type: cell-based, murine; conditions: 48 hours after addition of serially diluted amounts
# Experimental: Cell proliferation was measured using the MTT (3-{4,5-Dimethylthiazol-2-yl}-2,5-diphenyltetrazolium bromide, Sigma-Aldrich) assay. Cells were seeded in 50 uL growth medium in 96 well culture plates and allowed to attach overnight. 50 uL of growth medium plus two-fold concentrated treatment reagents were then added. After each treatment time point, 10 uL of 5% MTT solution (buffered in PBS) was added to each well. Plates were incubated for an additional 4 h at 37° C. to allow MTT to be metabolically converted into formazan crystals at cell mitochondria. The formazan crystals were finally solubilized by adding 100 ul of 10% Sodium Dodecyl Sulphate in 50% N—N-Dimethylformamide to each microplate well. Absorbances at 550 and 680 nm (corresponding to formazan salt and reference wavelengths, respectively) were measured using a colorimetry microplate reader. Wells containing only complete medium were used as controls. Each experiment was performed twice, using six replicates for each drug concentration.
# To test this, LLC cells were treated with either recombinant Tsp-1 or DWLPK (SEQ ID NO: 2) Psap peptide and cell proliferation was measured using an MTT assay. […] This supports the hypothesis that Tsp-1 can act directly on cancer cells, as this assay was performed in vitro in the absence of any blood vessels.
# [1] = tested on: Ovarian cancer cells expressing CD36; test: Viability of ovarian cancer cells expressing CD36 treated with Tsp-1; assay type: cell-based; conditions: Tsp-1 100 ng, 500 ng or 1000 ng; 0 hours or 48 hours
# Experimental: Ovarian cancer cells expressing CD36 were treated with either control or thrombospondin (Tsp-1, either 100 ng, 500 ng or 1000 ng) and the percent of viable cells was measured at 0 hours or 48 hours.
# [2] = tested on: AsPc1 human pancreatic cells; test: Pancreatic cancer mouse model; assay type: in vivo, SCID mice; conditions: for primary tumor mass: high CD36 AsPC pancreatic model, SCID mice, 20 or 40 mg/kg/day, from day 25 daily for 21 days
# Experimental: For the pancreatic cancer mouse model, 1×10^6 AsPc1 human pancreatic cells were injected into the pancreas of SCID mice. Mice were treated either with a control or with the psap peptide dWlP (SEQ ID NO: 47, 20 mg/kg/day or 40/mg/kg/day). Treatment began on day 25 and continued daily for 21 days. The mice were then euthanized and the primary tumor mass was measured. The presence or absence of ascites was also measured.
# [3] = tested on: ovarian cancer cells expressing luciferase; test: Ovarian cancer mouse model (luciferase intensity); assay type: in vivo; conditions: high CD36 ovarian cancer model
# Experimental: For the ovarian cancer mouse model, 1 million ovarian cancer cells expressing luciferase were injected intraperitoneally. Treatment was initiated 17 days later with cisplatin (4 mg/kg QOD), the psap peptide dWlP (SEQ ID NO: 47, 40 mg/kg QD), a combination of cisplatin and psap peptide, or PBS QD. Luciferase intensity was measured on several days beginning on about day 17 and measured over time.
# B16-B16 cells = test: Melanoma mouse model; assay type: in vivo, mice; conditions: low CD36 B16-B16 melanoma; 10 or 40 mg/kg; up to about 20-25 days post cell injection
# Experimental: For the melanoma mouse model, B16-B16 cells were injected into mice. Mice were treated with either psap peptide dWlP (SEQ ID NO: 47, 10 or 40 mg/kg) or control. The volume of the tumor was measured over time up until about 20-25 days post cell injection.
Substance,cell proliferation (MTT assay) (LLC cells),percent of viable cells (Tsp-1 mediated cell killing) [1],primary tumor mass [2],primary tumor mass ([2]; listed as psap peptide),"mice that form ascites (inhibition of metastasis) ([2]; pancreatic cancer model, control: 4 of 10 mice)",metastatic disease ([3]; dWlP 40 mg/kg QD),tumor response (luciferase intensity over time) ([3]; dWlP 40 mg/kg QD from day 17),tumor growth (tumor volume over time) (B16-B16 cells)
"DWLPK: DWLPK (SEQ ID NO: 2) Psap peptide, derived from a fragment of Saposin A (Psap peptide)",did not affect cell proliferation,–,–,–,–,–,–,–
"Tsp-1: recombinant thrombospondin (Tsp-1), a ligand of CD36",capable of decreasing cell proliferation,sensitive to Tsp-1 mediated cell killing in a dose-dependent manner,–,–,–,–,–,–
dWlP: psap peptide dWlP (SEQ ID NO: 47); lower case D and L indicate D-amino acids ([dD]W[dL]P),–,–,primary tumor mass was inhibited,regressed,1 of 19,showed regression of metastatic disease,caused regression of cancer,inhibited tumor growth but did not regress the tumor
